Test system: adults with plaque psoriasis
Test: Long-term open-label extension study (PSOARING 3): Physician Global Assessment (PGA), treatment episodes, treatment success, remittive effect
Type: in vivo, human
Procedure: This extension study consisted of up to 40 weeks of treatment and a 4 week, safety follow up period.
At the completion of the Week 12 visit of the DB, pivotal Phase 3 study, eligibility of the subjects opting to enroll in this extension study was confirmed. Study visits during the treatment period for all subjects occurred every 4 weeks (±3 days). A phone call was performed at Week 2 (Day 15). Unscheduled visits may have occurred, as needed. Subjects who withdrew from this study before Week 40 returned to the study center for an Early Termination visit. The total duration of this extension study participation was 44 weeks. Subjects in this study were treated as follows based on their PGA score from the Week 12 visit in the DB, pivotal Phase 3 study (Study DMVT 505 3001 or Study DMVT 505 3002).
The PGA was used to assess the primary efficacy endpoint in this study. The PGA is a clinical tool for assessing the current state/severity of a subject's psoriasis at a given time point. It is a static, 5 point, morphological assessment of overall disease severity, as determined by the Investigator, using the clinical characteristics of erythema, scaling, and plaque thickness/elevation as guidelines; higher PGA scores represent more severe disease (0=clear, 1=almost clear, 2=mild, 3=moderate, and 4=severe). The BSA affected was not considered in scoring of the PGA. Variations of the PGA are frequently used in clinical studies because it is a simple assessment, similar to those used in clinical practice. The PGA was performed first, prior to the % BSA, PASI, and LTS assessments.
Time to event parameters, such as the time from treatment success to subsequent worsening (PGA≥2) or duration of treatment episode, were summarized by the Kaplan Meier product limit method using OC.

[1] = Week 40, LOCF, Tapinarof (Pivotal) group
[2] = Week 40, OC, Vehicle (Pivotal) group
[3] = Week 40 LOCF, Tapinarof (Pivotal)
[4] = Week 40 LOCF, Vehicle (Pivotal)
[5] = Week 40 OC, Tapinarof (Pivotal)

In the case of `CC(C)c1c(O)cc(/C=C/c2ccccc2)cc1O` [Tapinarof, 3,5-Dihydroxy-4-isopropyl-trans-stilbene], the “PGA Change from Baseline: Improved by 4” value (Week 16 OC, Vehicle (Pivotal)) is reported as 1 (0.5) n (%), the “PGA Change from Baseline: No Change” value (Week 16 OC, Vehicle (Pivotal)) is reported as 59 (28.2) n (%) and the “PGA Change from Baseline: Worsened by 1” value (Week 16 OC, Vehicle (Pivotal)) is reported as 6 (2.9) n (%). For the same compound, the “PGA Change from Baseline: Worsened by 2” value (Week 16 OC, Vehicle (Pivotal)) was 2 (1.0) n (%), the “PGA Change from Baseline: Worsened by 3” value (Week 16 OC, Vehicle (Pivotal)) was 0 (0.0) n (%) and the “PGA Change from Baseline: Worsened by 4” value (Week 16 OC, Vehicle (Pivotal)) was 0 (0.0) n (%). The “Subjects with PGA=0” value [1] was 15.4%, the “Subjects with PGA=1” value [1] was 30.0% and the “Subjects with PGA=1” value (Week 40, LOCF, Vehicle (Pivotal) group) was 27.4%. For the same compound, the “Subjects with PGA=1” value (Week 40, OC, Tapinarof (Pivotal) group) was 30.1%, the “Subjects with PGA=0” value [2] was 23.9% and the “Subjects with PGA=1” value [2] was 31.9%. For the same compound, the “PGA 0 - Clear” value (Week 40 LOCF, Overall) was 118 (15.8) n (%), the “PGA 1 - Almost Clear” value (Week 40 LOCF, Overall) was 217 (29.1) n (%) and the “PGA 2 - Mild” value (Week 40 LOCF, Overall) was 253 (34.0) n (%). For the same compound, the “PGA 3 - Moderate” value (Week 40 LOCF, Overall) was 146 (19.6) n (%), the “PGA 4 - Severe” value (Week 40 LOCF, Overall) was 11 (1.5) n (%) and the “PGA Change from Baseline: Improved by 1” value (Week 40 LOCF, Overall) was 194 (26.1) n (%). The “PGA Change from Baseline: Improved by 2” value (Week 40 LOCF, Overall) was 88 (11.9) n (%), the “PGA Change from Baseline: Improved by 3” value (Week 40 LOCF, Overall) was 27 (3.6) n (%) and the “PGA Change from Baseline: Improved by 4” value (Week 40 LOCF, Overall) was 2 (0.3) n (%). The “PGA Change from Baseline: No Change” value (Week 40 LOCF, Overall) was 282 (38.0) n (%), the “PGA Change from Baseline: Worsened by 2” value (Week 40 LOCF, Overall) was 37 (5.0) n (%) and the “PGA Change from Baseline: Worsened by 3” value (Week 40 LOCF, Overall) was 4 (0.5) n (%). The “PGA Change from Baseline: Worsened by 4” value (Week 40 LOCF, Overall) was 0 (0.0) n (%), the “PGA 0 - Clear” value [3] was 76 (15.4) n (%) and the “PGA 1 - Almost Clear” value [3] was 148 (30.0) n (%). The “PGA 2 - Mild” value [3] was 171 (34.7) n (%), the “PGA 3 - Moderate” value [3] was 91 (18.5) n (%) and the “PGA 4 - Severe” value [3] was 7 (1.4) n (%). The “PGA Change from Baseline: Improved by 1” value [3] was 110 (22.4) n (%), the “PGA Change from Baseline: Improved by 2” value [3] was 31 (6.3) n (%) and the “PGA Change from Baseline: Improved by 3” value [3] was 5 (1.0) n (%). For the same compound, the “PGA Change from Baseline: Improved by 4” value [3] was 1 (0.2) n (%), the “PGA Change from Baseline: No Change” value [3] was 211 (43.0) n (%) and the “PGA Change from Baseline: Worsened by 1” value [3] was 95 (19.3) n (%). The “PGA Change from Baseline: Worsened by 2” value [3] was 34 (6.9) n (%), the “PGA Change from Baseline: Worsened by 3” value [3] was 4 (0.8) n (%) and the “PGA Change from Baseline: Worsened by 4” value [3] was 0 (0.0) n (%). For the same compound, the “PGA 0 - Clear” value [4] was 42 (16.7) n (%), the “PGA 1 - Almost Clear” value [4] was 69 (27.4) n (%) and the “PGA 2 - Mild” value [4] was 82 (32.5) n (%). For the same compound, the “PGA 3 - Moderate” value [4] was 55 (21.8) n (%), the “PGA 4 - Severe” value [4] was 4 (1.6) n (%) and the “PGA Change from Baseline: Improved by 1” value [4] was 84 (33.5) n (%). The “PGA Change from Baseline: Improved by 2” value [4] was 57 (22.7) n (%), the “PGA Change from Baseline: Improved by 3” value [4] was 22 (8.8) n (%) and the “PGA Change from Baseline: Improved by 4” value [4] was 1 (0.4) n (%). For the same compound, the “PGA Change from Baseline: No Change” value [4] was 71 (28.3) n (%), the “PGA Change from Baseline: Worsened by 1” value [4] was 13 (5.2) n (%) and the “PGA Change from Baseline: Worsened by 2” value [4] was 3 (1.2) n (%). For the same compound, the “PGA Change from Baseline: Worsened by 3” value [4] was 0 (0.0) n (%), the “PGA Change from Baseline: Worsened by 4” value [4] was 0 (0.0) n (%) and the “PGA 0 - Clear” value (Week 40 OC, Overall) was 68 (19.5) n (%). The “PGA 1 - Almost Clear” value (Week 40 OC, Overall) was 107 (30.7) n (%), the “PGA 2 - Mild” value (Week 40 OC, Overall) was 116 (33.2) n (%) and the “PGA 3 - Moderate” value (Week 40 OC, Overall) was 57 (16.3) n (%). The “PGA 4 - Severe” value (Week 40 OC, Overall) was 1 (0.3) n (%), the “PGA Change from Baseline: Improved by 1” value (Week 40 OC, Overall) was 99 (28.4) n (%) and the “PGA Change from Baseline: Improved by 2” value (Week 40 OC, Overall) was 46 (13.2) n (%). The “PGA Change from Baseline: Improved by 3” value (Week 40 OC, Overall) was 19 (5.4) n (%), the “PGA Change from Baseline: Improved by 4” value (Week 40 OC, Overall) was 1 (0.3) n (%) and the “PGA Change from Baseline: No Change” value (Week 40 OC, Overall) was 105 (30.1) n (%). The “PGA Change from Baseline: Worsened by 1” value (Week 40 OC, Overall) was 55 (15.8) n (%), the “PGA Change from Baseline: Worsened by 2” value (Week 40 OC, Overall) was 21 (6.0) n (%) and the “PGA Change from Baseline: Worsened by 3” value (Week 40 OC, Overall) was 3 (0.9) n (%). The “PGA Change from Baseline: Worsened by 4” value (Week 40 OC, Overall) was 0 (0.0) n (%), the “PGA 0 - Clear” value [5] was 41 (17.4) n (%) and the “PGA 1 - Almost Clear” value [5] was 71 (30.1) n (%). For the same compound, the “PGA 2 - Mild” value [5] was 81 (34.3) n (%), the “PGA 3 - Moderate” value [5] was 42 (17.8) n (%) and the “PGA 4 - Severe” value [5] was 1 (0.4) n (%). The “PGA Change from Baseline: Improved by 1” value [5] was 58 (24.6) n (%), the “PGA Change from Baseline: Improved by 2” value [5] was 19 (8.1) n (%) and the “PGA Change from Baseline: Improved by 3” value [5] was 2 (0.8) n (%). The “PGA Change from Baseline: Improved by 4” value [5] was 0 (0.0) n (%), the “PGA Change from Baseline: No Change” value [5] was 86 (36.4) n (%) and the “PGA Change from Baseline: Worsened by 1” value [5] was 48 (20.3) n (%). The “PGA Change from Baseline: Worsened by 2” value [5] was 20 (8.5) n (%), the “PGA Change from Baseline: Worsened by 3” value [5] was 3 (1.3) n (%) and the “PGA Change from Baseline: Worsened by 4” value [5] was 0 (0.0) n (%). The “PGA 0 - Clear” value (Week 40 OC, Vehicle (Pivotal)) was 27 (23.9) n (%) and the “PGA 1 - Almost Clear” value (Week 40 OC, Vehicle (Pivotal)) was 36 (31.9) n (%).

— patent US20220395472A1 (Dermavant Sciences GmbH, priority 2021, published 2022)
